Test results taken from publication PMC2646200 (Biochemistry, 2008).

B1: PDE8A1 (Homo sapiens) (protein)
chain: SLDDVPPRIARAMENEEYWDFDIFELEAATHNRPLIYLGLKMFARFGICEFLHCSESTLRSWLQIIEANYHSSNPYHNSTHSADVLHATAYFLSKERIKETLDPIDEVAALIAATIHDVDHPGRTNSFLCNAGSELAILYNDTAVLESHHAALAFQLTTGDDKCNIFKNMERNDYRTLRQGIIDMVLATEMTKHFEHVNKFVNSINKPLATLEENGETDKNQEVINTMLRTPENRTLIKRMLIKCADVSNPCRPLQYCIEWAARISEEYFSQTDEEKQQGLPVVMPVFDRNTCSIPKSQISFIDYFITDMFDAWDAFVDLPDLMQHLDNNFKYWKGLDEMK

Tests used:
PDE8A1 [1] = biological target: PDE8A1 (Homo sapiens, UniProt O60658); assay: 3H-cAMP hydrolysis assay, IC50; format: biochemical
PDE8A1 [2] = biological target: PDE8A1 (Homo sapiens, UniProt O60658, Y748F); assay: 3H-cAMP hydrolysis assay, IC50; format: biochemical
Sequence of PDE8A1 (Homo sapiens, UniProt O60658, Y748F) (O60658 480-820 Y748F): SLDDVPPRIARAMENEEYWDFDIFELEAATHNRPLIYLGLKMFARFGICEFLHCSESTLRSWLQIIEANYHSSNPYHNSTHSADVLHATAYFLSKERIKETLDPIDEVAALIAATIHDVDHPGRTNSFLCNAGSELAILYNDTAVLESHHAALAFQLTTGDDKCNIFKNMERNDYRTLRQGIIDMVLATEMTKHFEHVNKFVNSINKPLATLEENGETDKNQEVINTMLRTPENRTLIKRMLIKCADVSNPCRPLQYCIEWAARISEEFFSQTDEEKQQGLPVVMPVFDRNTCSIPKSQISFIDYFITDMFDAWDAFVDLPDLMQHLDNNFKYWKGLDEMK

purified protein = substrate: [H][C@@]12COP(=O)(O)O[C@@]1([H])[C@@H](O)[C@H](n1cnc3c(=O)[nH]c(N)nc31)O2; assay: purified protein; conditions: Mn2+ ([…] MnCl2)

| Molecule | IC50 (PDE8A1 [1]) [µM] | IC50 (PDE8A1 [2]) [µM] | Km (purified protein) [µM] |
| --- | --- | --- | --- |
| OCCN(CCO)c1nc(N2CCCCC2)c2nc(N(CCO)CCO)nc(N3CCCCC3)c2n1 [dipyridamole] | 6 ± 0.4 | 4.1 ± 0.4 |  |
| B1 |  |  | 1600 ± 100 |
